The text below walks through data of publication PMC11079024, “Identification of a family of species-selective complex I inhibitors as potential anthelmintics” (Nature Communications, 2024).

Experiment [1] addresses C. elegans (N2) complex I (NADH:ubiquinone oxidoreductase) (Caenorhabditis elegans, UniProt P24887+Q93873+Q94360). Kind of experiment: biochemical. It counts as biochemical. To be noted: for Log IC50 C. elegans complex I: log10 of IC50 in µM, C. elegans mitochondria. The method in brief:
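Mitochondria from liquid-cultured adults were freeze-thawed thrice before the 15-min DCIP-coupled NADH oxidation read.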

Experiment [2] addresses B. taurus (heart) complex I (Bos taurus, UniProt P03887+P17694+P42026). Kind of experiment: biochemical. To be noted: for IC50: B. taurus heart mitochondria, read-out: B. taurus Complex I IC50; for activity at 0.0001 µM / activity at 0.0005 µM / activity at 0.001 µM / activity at 0.0025 µM / activity at 0.005 µM / activity at 0.013 µM / activity at 0.025 µM / activity at 0.063 µM / activity at 0.125 µM / activity at 0.313 µM / activity at 0.625 µM / activity at 1.5 µM / activity at 3 µM / activity at 15 µM / activity at 37.5 µM / activity at 75 µM: read-out: B. taurus mitochondrial complex I activity; for Log IC50 B. taurus complex I: log10 of IC50 in µM, B. taurus mitochondria. Type of experiment: biochemical. The method in brief:
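Complex I activity followed as DCIP reduction (600 nm, 30 s reads, 15 min) with 80 μM NADH and 60 μM decylubiquinone in 25 mM KPi pH 7.5 containing 2 μM antimycin A and 2 mM KCN. Freeze-thawed mouse or bovine heart mitochondria at 0.2 mg/mL; initial-rate percent of solvent control, single-point 100 μM or dose-response.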

Another experiment relates to L1 wild-type C. elegans. Kind of experiment: microbe, parasite or virus in culture. To be noted: Caenorhabditis elegans, read-out: C. elegans KCN Survival Assay LC50, estimated from fitted dose-response curves; mean of at least two biological replicates.
The mark [3] stands for this setting: read-out: C. elegans mitochondrial complex I activity.
Where [4] appears, read: wild-type C. elegans mitochondria, estimated from fitted dose-response curves, read-out: C. elegans Complex I IC50.
[5] abbreviates: estimated from fitted dose-response curves.
Setting [6] is: in vitro complex I dose response on C. elegans mitochondria, average of at least two biological replicates, fit in R (DRC), read-out: IC50 C. elegans complex I.
[7] abbreviates: wild-type (N2) mitochondria, read-out: C. elegans Complex I IC50.
[8] abbreviates: wild-type C. elegans mitochondria, read-out: C. elegans Complex I IC50.

Where two headings read alike, the source gives them in different places.

Chain of C. elegans (N2) complex I (NADH:ubiquinone oxidoreductase) (Q94360 17-199): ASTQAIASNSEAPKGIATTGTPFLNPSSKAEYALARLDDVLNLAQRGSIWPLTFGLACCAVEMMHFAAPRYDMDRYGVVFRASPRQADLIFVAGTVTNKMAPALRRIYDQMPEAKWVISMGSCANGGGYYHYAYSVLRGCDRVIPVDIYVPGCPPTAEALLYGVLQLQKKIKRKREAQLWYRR
Chain of C. elegans (N2) complex I (NADH:ubiquinone oxidoreductase) (P24887 whole entry): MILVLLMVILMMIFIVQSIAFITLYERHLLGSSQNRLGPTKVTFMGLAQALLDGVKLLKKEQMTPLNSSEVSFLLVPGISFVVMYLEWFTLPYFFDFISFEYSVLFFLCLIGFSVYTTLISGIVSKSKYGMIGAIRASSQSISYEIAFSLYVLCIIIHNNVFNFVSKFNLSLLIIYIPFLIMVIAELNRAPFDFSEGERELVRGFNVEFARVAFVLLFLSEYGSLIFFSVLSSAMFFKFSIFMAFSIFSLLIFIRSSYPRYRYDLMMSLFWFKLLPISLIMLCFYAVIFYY
Chain of C. elegans (N2) complex I (NADH:ubiquinone oxidoreductase) (Q93873 31-482): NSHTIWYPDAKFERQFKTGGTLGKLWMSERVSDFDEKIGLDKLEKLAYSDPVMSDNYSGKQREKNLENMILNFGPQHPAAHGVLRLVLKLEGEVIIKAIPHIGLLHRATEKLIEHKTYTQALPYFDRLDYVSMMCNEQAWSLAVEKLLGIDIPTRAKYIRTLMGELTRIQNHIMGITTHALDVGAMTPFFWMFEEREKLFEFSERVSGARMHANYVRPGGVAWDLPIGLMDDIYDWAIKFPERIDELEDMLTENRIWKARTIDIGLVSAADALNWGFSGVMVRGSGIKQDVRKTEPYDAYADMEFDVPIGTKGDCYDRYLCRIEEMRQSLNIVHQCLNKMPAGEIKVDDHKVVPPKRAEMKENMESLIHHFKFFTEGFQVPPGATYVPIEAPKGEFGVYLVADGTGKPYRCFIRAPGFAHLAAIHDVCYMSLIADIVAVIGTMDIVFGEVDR
Chain of B. taurus (heart) complex I (P03887 whole entry): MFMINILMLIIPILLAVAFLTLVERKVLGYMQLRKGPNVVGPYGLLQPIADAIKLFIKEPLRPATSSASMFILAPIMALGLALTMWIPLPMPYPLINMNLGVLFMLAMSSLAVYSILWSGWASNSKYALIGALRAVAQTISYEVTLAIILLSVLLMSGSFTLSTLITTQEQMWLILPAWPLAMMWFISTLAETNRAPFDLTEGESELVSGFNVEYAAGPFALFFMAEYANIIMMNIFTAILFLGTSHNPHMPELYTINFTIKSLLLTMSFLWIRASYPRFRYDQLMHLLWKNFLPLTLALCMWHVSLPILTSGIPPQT
Chain of B. taurus (heart) complex I (P17694 34-463): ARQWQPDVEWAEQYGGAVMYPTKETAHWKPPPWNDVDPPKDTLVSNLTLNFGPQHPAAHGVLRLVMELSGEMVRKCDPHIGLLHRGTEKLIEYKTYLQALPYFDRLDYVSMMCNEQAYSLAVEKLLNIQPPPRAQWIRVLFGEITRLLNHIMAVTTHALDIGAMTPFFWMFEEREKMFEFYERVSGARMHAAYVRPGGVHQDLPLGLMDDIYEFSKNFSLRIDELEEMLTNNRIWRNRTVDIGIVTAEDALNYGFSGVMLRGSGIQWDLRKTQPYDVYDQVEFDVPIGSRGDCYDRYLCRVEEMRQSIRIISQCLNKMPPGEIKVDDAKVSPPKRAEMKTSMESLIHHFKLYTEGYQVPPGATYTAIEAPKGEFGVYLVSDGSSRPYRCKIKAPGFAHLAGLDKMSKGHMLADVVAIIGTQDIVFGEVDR
Chain of B. taurus (heart) complex I (P42026 38-216): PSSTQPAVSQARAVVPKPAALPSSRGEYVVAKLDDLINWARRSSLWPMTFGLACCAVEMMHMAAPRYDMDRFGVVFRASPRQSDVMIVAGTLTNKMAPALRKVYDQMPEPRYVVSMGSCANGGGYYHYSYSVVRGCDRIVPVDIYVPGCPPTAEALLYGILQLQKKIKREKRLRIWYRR

Take `Brc1ccccc1OCCCCn1cnc2ccccc21` [Compound 7924576]: in experiment [1] (setting [3]), the activity at 0.0001 µM was found to be 82.9%, the activity at 0.0005 µM worked out at 89.9%, the activity at 0.001 µM was 81.8% and the activity at 0.0025 µM was 93.2%. In experiment [1] (setting [3]), the activity at 0.005 µM turned out to be 91.6%, the activity at 0.013 µM is 87.2%, the activity at 0.025 µM amounted to 76% and the activity at 0.063 µM was 73.6%. In experiment [1] (setting [3]), the activity at 0.125 µM was 67.2%, the activity at 0.313 µM came to 52.4%, the activity at 0.625 µM worked out at 40.5% and the activity at 1.5 µM came to 21.3%. For the same molecule, in experiment [1] (setting [3]), the activity at 3 µM came out at 12.5%, the activity at 15 µM amounted to 10.2% and the activity at 75 µM was found to be 5.45%. Besides, the “Log IC50 C. elegans complex I” value in experiment [1] is on record as -0.37 µM. Besides, in experiment [1] (setting [4]), the IC50 was 0.43 µM. For the same molecule, the IC50 in experiment [2] (setting [5]) was 1.14 µM. Besides, in experiment [2], the activity at 0.0001 µM amounted to 104%, the activity at 0.0005 µM came to 101%, the activity at 0.001 µM is 108% and the activity at 0.0025 µM was found to be 104%. Besides, in experiment [2], the activity at 0.005 µM is 101%, the activity at 0.013 µM worked out at 102%, the activity at 0.025 µM turned out to be 102% and the activity at 0.063 µM came to 96.3%. Also, in experiment [2], the activity at 0.125 µM was 84.6%, the activity at 0.313 µM was determined as 74.3%, the activity at 0.625 µM stood at 68% and the activity at 1.5 µM stood at 44.1%. Further, in experiment [2], the activity at 3 µM turned out to be 32%, the activity at 15 µM was found to be 6.52%, the activity at 37.5 µM was 3.45% and the activity at 75 µM turned out to be 3.05%. Also, the “Log IC50 B. taurus complex I” value in experiment [2] was 0.0569 µM. Moreover, the LC50 with L1 wild-type C. elegans is 6.73 µM.

Take `Cc1ccc(Cn2c(C(C)C)nc3ccccc32)cc1` [Compound 6586153]: the IC50 in experiment [1] (setting [6]) was 9.43 µM; in experiment [1] (setting [7]), 9.43 µM; in experiment [1] (setting [8]) it was 9.43 µM; in experiment [2] it was 57.6 µM. Moreover, the “Log IC50 C. elegans complex I” value in experiment [1] worked out at 0.97 µM. The “Log IC50 B. taurus complex I” value in experiment [2] worked out at 1.76 µM. In addition, the LC50 with L1 wild-type C. elegans was 24.9 µM.

`Cc1nc2ccccc2n1Cc1ccc(C(C)C)cc1` [Compound 7353551]: the half-inhibitory concentration (IC50) was 0.43 µM in experiment [1] (setting [6]), 0.43 µM in experiment [1] (setting [7]), 0.43 µM in experiment [1] (setting [4]) and 1.57 µM in experiment [2] (setting [5]). Further, the “Log IC50 C. elegans complex I” value in experiment [1] is -0.37 µM. In addition, the “Log IC50 B. taurus complex I” value in experiment [2] amounted to 0.20 µM. For the same molecule, in the experiment on L1 wild-type C. elegans, the LC50 is 7 µM.

Regarding `CC(C)Cc1ccc(C(C)c2nc3ccccc3n2C(C)C)cc1` (centres unmarked) [STK951903], the IC50 in experiment [1] (setting [6]) stood at 4.2 µM; in experiment [1] (setting [7]) it was 4.2 µM; in experiment [1] (setting [8]), 4.2 µM; in experiment [2] it was 14.7 µM. Besides, in experiment [1], the “Log IC50 C. elegans complex I” value was 0.62 µM. Besides, in experiment [2], the “Log IC50 B. taurus complex I” value stood at 1.17 µM. Moreover, in the experiment with L1 wild-type C. elegans, the LC50 is 25.1 µM.

Turning to `CCc1cc(OCCn2cnc3ccccc32)ccc1Cl` [Compound 7925288], in experiment [1] (setting [3]), the activity at 0.0001 µM came to 89.3%, the activity at 0.0005 µM amounted to 90.8%, the activity at 0.001 µM turned out to be 94% and the activity at 0.0025 µM was found to be 90.8%. Besides, in experiment [1] (setting [3]), the activity at 0.005 µM was determined as 98.8%, the activity at 0.013 µM amounted to 96.9%, the activity at 0.025 µM is 96.9% and the activity at 0.063 µM stood at 63.2%. Further, in experiment [1] (setting [3]), the activity at 0.125 µM turned out to be 63.3%, the activity at 0.313 µM came to 77.6%, the activity at 0.625 µM stood at 77.6% and the activity at 1.5 µM amounted to 60.7%. Moreover, in experiment [1] (setting [3]), the activity at 3 µM worked out at 46.8%, the activity at 15 µM worked out at 16.1%, the activity at 37.5 µM came to 4.53% and the activity at 75 µM turned out to be 2.28%. In addition, the IC50 in experiment [1] (setting [6]) was determined as 8.09 µM. Besides, the “Log IC50 C. elegans complex I” value in experiment [1] came out at 0.91 µM. Also, in experiment [1] (setting [8]), the IC50 is 8.09 µM. In addition, in experiment [2], the 50% inhibitory concentration (IC50) is 5.7 µM, the activity at 0.0001 µM was found to be 89.8%, the activity at 0.0005 µM amounted to 91.3% and the activity at 0.001 µM turned out to be 88.8%. Also, in experiment [2], the activity at 0.0025 µM was 86.3%, the activity at 0.005 µM is 84.5%, the activity at 0.013 µM was 89.2% and the activity at 0.025 µM was 82.7%. Moreover, in experiment [2], the activity at 0.063 µM worked out at 84.2%, the activity at 0.125 µM was 82.8%, the activity at 0.313 µM came to 79.8% and the activity at 0.625 µM stood at 84.6%. In addition, in experiment [2], the activity at 1.5 µM is 75.4%, the activity at 3 µM is 61.1%, the activity at 15 µM is 17.7% and the activity at 37.5 µM came out at 2.74%. In experiment [2], the activity at 75 µM was found to be 1.27% and the “Log IC50 B. taurus complex I” value came out at 0.76 µM. In addition, the LC50 in the experiment on L1 wild-type C. elegans was 19.1 µM.

In the case of `CCCn1c(COc2ccc(C)cc2)nc2ccccc21` [Compound 6944471], in experiment [1] (setting [3]), the activity at 0.0001 µM stood at 95.2%, the activity at 0.0005 µM was found to be 103%, the activity at 0.001 µM was 96.6% and the activity at 0.0025 µM stood at 100%. Besides, in experiment [1] (setting [3]), the activity at 0.005 µM turned out to be 90.8%, the activity at 0.013 µM was determined as 108%, the activity at 0.025 µM worked out at 106% and the activity at 0.063 µM is 111%. For the same molecule, in experiment [1] (setting [3]), the activity at 0.125 µM came to 123%, the activity at 0.313 µM came to 103%, the activity at 0.625 µM stood at 113% and the activity at 1.5 µM was found to be 107%. For the same molecule, in experiment [1] (setting [3]), the activity at 3 µM is 96.1%, the activity at 15 µM was determined as 88.5%, the activity at 37.5 µM was found to be 89.5% and the activity at 75 µM stood at 64.7%. Also, the activity at […] in experiment [1] (Dose 7.5 µM, read-out: C. elegans mitochondrial complex I activity) is 108%. Moreover, the half-inhibitory concentration (IC50) in experiment [1] (setting [4]) was greater than 75 µM. Besides, the LC50 in the experiment on L1 wild-type C. elegans is 10.6 µM.

For the molecule `Cc1ccc(CSCc2nc3ccccc3[nH]2)cc1` [Compound 7121781], in experiment [1] (setting [3]), the activity at 0.0001 µM came to 100%, the activity at 0.0005 µM was determined as 95.4%, the activity at 0.001 µM came to 94.3% and the activity at 0.0025 µM amounted to 98%. In experiment [1] (setting [3]), the activity at 0.005 µM was determined as 98.1%, the activity at 0.013 µM was 104%, the activity at 0.025 µM stood at 99.3% and the activity at 0.063 µM amounted to 89.7%. Also, in experiment [1] (setting [3]), the activity at 0.125 µM amounted to 95.8%, the activity at 0.313 µM was 87.2%, the activity at 0.625 µM came to 99.9% and the activity at 1.5 µM is 94%. Besides, in experiment [1] (setting [3]), the activity at 3 µM is 73.4%, the activity at 15 µM came out at 71.1%, the activity at 37.5 µM came to 43.5% and the activity at 75 µM came to 23.3%. In experiment [1] (setting [6]), the IC50 was determined as 28.5 µM. Besides, the “Log IC50 C. elegans complex I” value in experiment [1] was found to be 1.46 µM. For the same molecule, the IC50 in experiment [1] (setting [8]) was determined as 28.5 µM. For the same molecule, the median lethal concentration (LC50) with L1 wild-type C. elegans was 9.79 µM.
